# Laboratory results reported in patent US20240400542A1 (University of Virginia Patent Foundation, priority 2021, published 2024).
# Legend:
# Test in all cases: SILAC competitive chemical proteomic assay (TH211 probe, LC-MS/MS)
# Type in all cases: cell-based
# [1] = target: T1, 14-3-3 protein epsilon (Homo sapiens, UniProt P62258); details: TH207 inhibitor; HEK293T soluble fraction; P62258.1 lysine 215
# T1 construct: endogenous in cells; host or cells: HEK293T
# T1 sequence (P62258 1-255): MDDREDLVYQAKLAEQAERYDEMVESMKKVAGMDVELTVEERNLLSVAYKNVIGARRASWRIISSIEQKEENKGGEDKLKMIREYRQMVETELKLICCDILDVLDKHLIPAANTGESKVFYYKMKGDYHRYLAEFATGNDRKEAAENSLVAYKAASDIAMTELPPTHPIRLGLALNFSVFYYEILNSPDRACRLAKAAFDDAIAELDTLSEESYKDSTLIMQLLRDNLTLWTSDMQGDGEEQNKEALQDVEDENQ
# Procedure: (§1) The light and heavy proteomes (2.3 mg/mL, 432 μL) prepared from HEK293T cells that were pretreated in situ with vehicle (DMSO) or the inhibitor (2 μM), respectively, at 37° C. for 1 hr followed by probe TH211 treatment (50 μM) for 2 h, were directly were subjected to click reaction with the desthiobiotin-PEG3-azide (10 mM in DMSO, 10 μL, final concentration 200 μM) in the presence of TCEP (50 mM, 10 μL), TBTA (1.7 mM, 33 μL) and CuSO4 (50 mM, 10 μL) at room temperature for 1 hr. The light and the heavy samples were mixed in the chloroform-methanol extraction step. The subsequent steps including reduction with dithiothreitol, alkylation with iodoacetamide, digestion with Trypsin/Lys-C, enrichment with avidin beads were conducted as previously described^26.
# [2] = target: T2, Alpha-enolase (Homo sapiens, UniProt P06733); details: TH207 inhibitor; HEK293T soluble fraction; P06733.2 lysine 80
# T2 construct: endogenous in cells; host or cells: HEK293T
# Procedure: as §1
# [3] = target: T3, Coronin-1C (Homo sapiens, UniProt Q9ULV4); details: TH207 inhibitor; HEK293T soluble fraction; Q9ULV4.1 tyrosine 301
# T3 construct: endogenous in cells; host or cells: HEK293T
# Procedure: as §1
# [4] = target: T4, Cytochrome c (Homo sapiens, UniProt P99999); details: TH207 inhibitor, HEK293T soluble fraction
# T4 construct: endogenous in cells; host or cells: HEK293T
# Procedure: as §1
# [5] = target: T5, Inosine-5′-monophosphate dehydrogenase 2 (Homo sapiens, UniProt P12268); details: TH207 inhibitor; HEK293T soluble fraction; P12268.2 tyrosine 509
# T5 construct: endogenous in cells; host or cells: HEK293T
# Procedure: as §1
# [6] = system: Major capsid protein VP1; details: TH207 inhibitor; HEK293T soluble fraction; Q98WD1 lysine 235
# Procedure: as §1
# [7] = target: T6, Perilipin-2 (Homo sapiens, UniProt Q99541); details: TH207 inhibitor; HEK293T soluble fraction; Q99541.2 tyrosine 190
# T6 construct: endogenous in cells; host or cells: HEK293T
# T6 sequence (Q99541 1-437): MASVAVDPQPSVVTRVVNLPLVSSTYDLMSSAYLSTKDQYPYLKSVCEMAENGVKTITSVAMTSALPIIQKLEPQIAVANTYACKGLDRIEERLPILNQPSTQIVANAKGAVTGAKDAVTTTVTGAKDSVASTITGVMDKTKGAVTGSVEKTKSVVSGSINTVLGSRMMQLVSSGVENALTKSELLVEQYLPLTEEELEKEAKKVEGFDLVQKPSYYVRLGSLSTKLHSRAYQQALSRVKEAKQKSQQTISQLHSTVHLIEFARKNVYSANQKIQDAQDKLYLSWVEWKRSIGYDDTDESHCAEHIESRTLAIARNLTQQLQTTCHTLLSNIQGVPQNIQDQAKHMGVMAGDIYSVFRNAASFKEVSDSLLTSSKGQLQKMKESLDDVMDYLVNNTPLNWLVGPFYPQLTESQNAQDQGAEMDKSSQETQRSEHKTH
# Procedure: as §1
# [8] = target: T7, Phosphatidylinositol transfer protein beta isoform (Homo sapiens, UniProt P48739); details: TH207 inhibitor, HEK293T soluble fraction
# T7 construct: endogenous in cells; host or cells: HEK293T
# T7 sequence (P48739 1-271): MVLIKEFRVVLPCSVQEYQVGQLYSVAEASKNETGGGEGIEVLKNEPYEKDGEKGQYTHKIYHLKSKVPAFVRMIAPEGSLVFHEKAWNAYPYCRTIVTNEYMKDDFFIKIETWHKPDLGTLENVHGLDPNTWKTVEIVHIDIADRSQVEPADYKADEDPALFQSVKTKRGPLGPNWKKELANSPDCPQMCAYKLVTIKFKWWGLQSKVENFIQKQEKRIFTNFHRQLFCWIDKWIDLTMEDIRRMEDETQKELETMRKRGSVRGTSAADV
# Procedure: as §1
# [9] = target: T8, Proteasome subunit alpha type-2 (Homo sapiens, UniProt P25787); details: TH207 inhibitor; HEK293T soluble fraction; P25787.2 lysine 92
# T8 construct: endogenous in cells; host or cells: HEK293T
# Procedure: as §1
# [10] = target: T9, Sorting nexin-6 (Homo sapiens, UniProt Q9UNH7); details: TH207 inhibitor; HEK293T soluble fraction; Q9UNH7.1 lysine 204
# T9 construct: endogenous in cells; host or cells: HEK293T
# T9 sequence (Q9UNH7 1-406): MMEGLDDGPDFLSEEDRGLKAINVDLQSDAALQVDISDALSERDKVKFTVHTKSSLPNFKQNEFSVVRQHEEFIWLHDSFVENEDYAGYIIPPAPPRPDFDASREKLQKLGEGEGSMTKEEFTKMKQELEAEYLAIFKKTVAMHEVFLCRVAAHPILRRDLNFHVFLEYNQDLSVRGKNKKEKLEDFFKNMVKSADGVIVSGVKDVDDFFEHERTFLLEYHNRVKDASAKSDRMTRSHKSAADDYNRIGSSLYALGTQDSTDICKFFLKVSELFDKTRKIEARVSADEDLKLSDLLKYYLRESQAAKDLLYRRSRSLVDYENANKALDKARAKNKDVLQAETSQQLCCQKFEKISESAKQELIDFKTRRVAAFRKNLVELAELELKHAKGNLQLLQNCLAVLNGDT
# Procedure: as §1
# [11] = target: T10, dCTP pyrophosphatase 1 (Homo sapiens, UniProt Q9H773); details: TH207 inhibitor; HEK293T soluble fraction; Q9H773.1 tyrosine 129
# T10 construct: endogenous in cells; host or cells: HEK293T
# T10 sequence (Q9H773 1-170): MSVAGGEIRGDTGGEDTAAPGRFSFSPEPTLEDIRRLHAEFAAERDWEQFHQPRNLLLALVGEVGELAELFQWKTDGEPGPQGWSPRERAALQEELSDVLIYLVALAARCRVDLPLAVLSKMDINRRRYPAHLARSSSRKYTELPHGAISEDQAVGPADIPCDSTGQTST
# Procedure: as §1
# T4 sequence (P99999 whole entry): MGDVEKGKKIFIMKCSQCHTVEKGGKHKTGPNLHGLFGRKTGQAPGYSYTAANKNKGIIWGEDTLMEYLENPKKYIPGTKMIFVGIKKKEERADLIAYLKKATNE
# T3 sequence (Q9ULV4 whole entry): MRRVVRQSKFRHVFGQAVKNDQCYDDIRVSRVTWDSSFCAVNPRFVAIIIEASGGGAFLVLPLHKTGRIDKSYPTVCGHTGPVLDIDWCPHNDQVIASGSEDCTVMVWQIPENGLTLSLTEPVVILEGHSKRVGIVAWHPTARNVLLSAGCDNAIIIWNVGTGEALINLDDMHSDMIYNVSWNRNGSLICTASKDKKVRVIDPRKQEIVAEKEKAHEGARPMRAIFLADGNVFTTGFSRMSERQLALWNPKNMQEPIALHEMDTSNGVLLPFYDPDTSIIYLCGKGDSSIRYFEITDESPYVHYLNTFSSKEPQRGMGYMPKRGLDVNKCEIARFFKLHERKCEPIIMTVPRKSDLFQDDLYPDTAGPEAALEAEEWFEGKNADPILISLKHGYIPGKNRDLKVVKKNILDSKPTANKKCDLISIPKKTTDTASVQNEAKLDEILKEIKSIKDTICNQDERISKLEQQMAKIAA
# T5 sequence (P12268 2-514 limits assumed): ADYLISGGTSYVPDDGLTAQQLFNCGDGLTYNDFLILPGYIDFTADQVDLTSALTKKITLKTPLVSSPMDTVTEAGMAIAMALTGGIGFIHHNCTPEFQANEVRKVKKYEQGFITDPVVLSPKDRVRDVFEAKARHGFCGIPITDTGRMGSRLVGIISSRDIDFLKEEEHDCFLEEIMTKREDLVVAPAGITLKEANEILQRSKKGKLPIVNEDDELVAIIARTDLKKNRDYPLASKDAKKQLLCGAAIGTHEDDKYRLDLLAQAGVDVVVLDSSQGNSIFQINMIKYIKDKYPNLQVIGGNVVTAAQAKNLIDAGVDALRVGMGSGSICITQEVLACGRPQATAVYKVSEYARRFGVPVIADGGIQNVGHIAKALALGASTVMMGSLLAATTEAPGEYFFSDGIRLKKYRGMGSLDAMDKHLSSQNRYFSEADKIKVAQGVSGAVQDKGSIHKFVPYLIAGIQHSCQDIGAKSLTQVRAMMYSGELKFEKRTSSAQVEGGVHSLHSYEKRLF
# T2 sequence (P06733 whole entry): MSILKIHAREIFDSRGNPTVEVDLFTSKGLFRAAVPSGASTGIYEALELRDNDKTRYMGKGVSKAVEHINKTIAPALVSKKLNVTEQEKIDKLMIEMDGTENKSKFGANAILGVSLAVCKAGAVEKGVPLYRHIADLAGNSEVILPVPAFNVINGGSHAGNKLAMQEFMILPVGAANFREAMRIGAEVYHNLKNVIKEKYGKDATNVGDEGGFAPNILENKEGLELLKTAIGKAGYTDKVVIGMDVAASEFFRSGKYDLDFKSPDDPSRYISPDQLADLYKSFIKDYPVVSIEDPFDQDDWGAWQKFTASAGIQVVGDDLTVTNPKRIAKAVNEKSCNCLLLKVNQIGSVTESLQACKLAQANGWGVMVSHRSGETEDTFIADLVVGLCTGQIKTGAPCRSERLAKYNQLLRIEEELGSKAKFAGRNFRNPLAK
smiles,measurement,setting,value
"Cc1ccc(S(=O)(=O)n2cc(CCN3CCC(=C(c4ccc(F)cc4)c4ccc(F)cc4)CC3)nn2)cc1 [TH207, 4-(Bis(4-fluorophenyl)methylene)-1-(2-(1-tosyl-1H-1,2,3-triazol-4-yl)ethyl)piperidine]","Normalized SILAC ratio (SR), 14-3-3 protein epsilon K215",[1],3.7
same,"Normalized SILAC ratio (SR), Alpha-enolase K80",[2],1.6
same,"Normalized SILAC ratio (SR), Coronin-1C Y301",[3],20
same,"Normalized SILAC ratio (SR), Cytochrome c K28",[4]; P99999.2 lysine 28,1.4
same,"Normalized SILAC ratio (SR), Cytochrome c K40",[4]; P99999.2 lysine 40,1.5
same,"Normalized SILAC ratio (SR), Cytochrome c K54",[4]; P99999.2 lysine 54,1.8
same,"Normalized SILAC ratio (SR), Cytochrome c Y49",[4]; P99999.2 tyrosine 49,1.5
same,"Normalized SILAC ratio (SR), Inosine-5′-monophosphate dehydrogenase 2 Y509",[5],1.6
same,"Normalized SILAC ratio (SR), Major capsid protein VP1 K235",[6],1.3
same,"Normalized SILAC ratio (SR), Perilipin-2 Y190",[7],3.5
same,"Normalized SILAC ratio (SR), Phosphatidylinositol transfer protein beta isoform K155",[8]; P48739.2 lysine 155,1.8
same,"Normalized SILAC ratio (SR), Phosphatidylinositol transfer protein beta isoform Y154",[8]; P48739.2 tyrosine 154,1.8
same,"Normalized SILAC ratio (SR), Proteasome subunit alpha type-2 K92",[9],1.2
same,"Normalized SILAC ratio (SR), Sorting nexin-6 K204",[10],6.9
same,"Normalized SILAC ratio (SR), dCTP pyrophosphatase 1 Y129",[11],3
